This note sets out measurements from patent US8613962B2, “Prophylactic or alleviating agent for peripheral nerve disorder induced by anti-cancer agent” (Kyushu University, National University Corporation, priority 2007, dated 2013).

In data set [1] the test system is rat peripheral nerve disorder induced by oxaliplatin. Conditions: rats; oxaliplatin alone 4 mg/kg i.p. twice per week; second week; FIG. 5.
For data set [2] the test system is unchanged. The conditions noted are these: rats; oxaliplatin alone 4 mg/kg i.p.; second week; FIG. 6.
In data set [3] the test system is rat peripheral nerve disorder induced by paclitaxel. Format: in vivo. The conditions noted are these: SD male rats; paclitaxel alone 6 mg/kg i.p. once a week for 4 weeks; FIG. 1.
Data set [4] shares this test system. Format: in vivo. Conditions: SD male rats; paclitaxel alone 6 mg/kg i.p.; FIG. 2.
Data set [5] shares this test system. Format: in vivo. The conditions noted are these: rats; paclitaxel alone.
Experimental: 7 and 8-week-old SD male rats were used as experimental animals and separated into three groups of a control group, group administered with paclitaxel, and group administered with paclitaxel and the test substance (group administered with paclitaxel+test substance). To the group administered with paclitaxel, paclitaxel (6 mg/kg) was intraperitoneally administered once a week for 4 weeks in a total of 4 times. To the group administered with paclitaxel+test substance, the test substance (200 NU/kg) was orally administered three times a week, that is, just before the paclitaxel administration and on days 1 and 2 after the paclitaxel administration, for 4 weeks in a total of 12 times. To the control group, a solvent (polyoxyethylene castor oil:ethanol=1:1) used in the paclitaxel administration was similarly administered.
A further data set relates to PC12 cells. Type of data set: cell-based, rat. Conditions: forskolin-induced, 10 ng/mL paclitaxel only, 168 hours, FIG. 3.
Another data set relates to DRG cells. Type of data set: cell-based, rat. The conditions noted are these: 10 ng/mL paclitaxel only, 168 hours, FIG. 4.

Regarding `O=C1[O][Pt]2([NH][C@@H]3CCCC[C@H]3[NH]2)[O]C1=O` [oxaliplatin], the “50% reaction threshold value (von Frey test), compared with control group” value in data set [1] was “remarkably lowered”. The “latent time to posterior foot avoidance (cold plate test, 4° C.)” value in data set [2] is “remarkably shortened”.
For the compound `CC(=O)O[C@H]1C(=O)[C@@]2(C)[C@H]([C@H](OC(=O)c3ccccc3)[C@]3(O)C[C@H](OC(=O)[C@H](O)[C@@H](NC(=O)c4ccccc4)c4ccccc4)C(C)=C1C3(C)C)[C@]1(OC(C)=O)CO[C@@H]1C[C@@H]2O` [paclitaxel], in data set [3], the “50% reaction threshold value (von Frey test), compared with control group” value is on record as “remarkably lowered”. In data set [4], the “latent time to avoidance reaction (acetone test, cold stimuli)” value is “remarkably shortened”. Besides, in data set [5], the “latent time (plantar test, heat stimuli)” value was “not shortened”. Besides, the “neurite outgrowth (neurite length)” value in the data set with PC12 cells and in the data set on DRG cells was “inhibited” in each case.
